The compounds below were run against human APJ receptor (Homo sapiens (Human), UniProt P35414) (assay: [35S]GTPγS binding assay on membranes from CHO cells stably expressing human APJ receptor). Settings: [35S]GTPγS SPA, read-out: Activity hAPJ SPA EC50 IP.
Format: biochemical
Summary of the method: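 Membranes from CHO cells stably expressing FLAG-tagged human APJ were incubated with [35S]GTPγS in buffer with optimized GDP, MgCl2 and NaCl, 90 min at RT. EC50 values derived by non-linear regression, averaged over several independent experiments.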

Chain of human APJ receptor (P35414 whole entry): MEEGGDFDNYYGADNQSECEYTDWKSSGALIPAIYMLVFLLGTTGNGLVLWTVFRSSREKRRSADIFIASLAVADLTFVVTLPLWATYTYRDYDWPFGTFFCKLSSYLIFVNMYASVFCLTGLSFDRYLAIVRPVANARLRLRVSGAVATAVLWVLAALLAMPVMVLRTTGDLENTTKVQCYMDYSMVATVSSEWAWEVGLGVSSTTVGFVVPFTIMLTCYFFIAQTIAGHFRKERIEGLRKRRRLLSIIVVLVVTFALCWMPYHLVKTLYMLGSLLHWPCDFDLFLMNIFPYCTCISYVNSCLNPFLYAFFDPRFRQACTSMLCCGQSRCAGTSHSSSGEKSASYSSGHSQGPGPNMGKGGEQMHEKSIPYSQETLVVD

Question: `COc1cccc(OC)c1-n1c(NS(=O)(=O)[C@@H](C)[C@H](OC)c2ncc(Cl)cn2)nnc1[C@H]1CC[C@H](OC)C1` (single isomer, unassigned) [Example 215.0] was tested. Which EC50 did it give?
Answer: 66 nM

Question: Which EC50 does the source give for `COc1ncnc(OC)c1-n1c(NS(=O)(=O)[C@@H](C)[C@H](OC)c2ncc(Cl)cn2)nnc1[C@H]1C[C@@H](Cl)C1` (single isomer, unassigned) [Example 164.0, (1R,2S)-1-(5-chloropyrimidin-2-yl)-N-(4-(4,6-dimethoxypyrimidin-5-yl)-5-((1s,3R)-3-chlorocyclobutyl)-4H-1,2,4-triazol-3-yl)-1-methoxypropane-2-sulfonamide or (1R,2S)-1-(5-chloropyrimidin-2-yl)-N-(4-(4,6-dimethoxypyrimidin-5-yl)-5-((1r,3S)-3-chlorocyclobutyl)-4H-1,2,4-triazol-3-yl)-1-methoxypropane-2-sulfonamide] here?
Answer: 0.54 nM

Question: How did the EC50 turn out when `CO[C@H](c1ncc(Cl)cn1)[C@H](C)S(=O)(=O)Nc1nnc([C@H]2C[C@H](CO)C2)n1C1CC1` (single isomer, unassigned) [Example 134.0, (1R,2S)-1-(5-chloro-2-pyrimidinyl)-N-(4-cyclopropyl-5-(trans-3-(hydroxymethyl)cyclobutyl)-4H-1,2,4-triazol-3-yl)-1-methoxy-2-propanesulfonamide or (1R,2S)-1-(5-chloro-2-pyrimidinyl)-N-(4-cyclopropyl-5-(cis-3-(hydroxymethyl)cyclobutyl)-4H-1,2,4-triazol-3-yl)-1-methoxy-2-propanesulfonamide] was run?
Answer: 1330 nM

Question: How did the EC50 turn out when `CO[C@H](c1ncc(Cl)cn1)[C@H](C)S(=O)(=O)Nc1nnc([C@H]2C[C@H](CO)C2)n1C(C)C` (single isomer, unassigned) [Example 137.0, (1R,2S)-1-(5-chloro-2-pyrimidinyl)-N-(5-(trans-3-(hydroxymethyl)cyclobutyl)-4-(2-propanyl)-4H-1,2,4-triazol-3-yl)-1-methoxy-2-propanesulfonamide or (1R,2S)-1-(5-chloro-2-pyrimidinyl)-N-(5-(cis-3-(hydroxymethyl)cyclobutyl)-4-(2-propanyl)-4H-1,2,4-triazol-3-yl)-1-methoxy-2-propanesulfonamide] was run?
Answer: 340 nM

Question: Which EC50 does the source give for `COc1cccc(OC)c1-n1c(NS(=O)(=O)[C@@H](C)[C@H](OC)c2ncc(Cl)cn2)nnc1[C@H]1C[C@H](OC)C1` (single isomer, unassigned) [Example 156.0, (1R,2S)-1-(5-chloropyrimidin-2-yl)-N-(4-(2,6-dimethoxyphenyl)-5-((1r,3S)-3-methoxycyclobutyl)-4H-1,2,4-triazol-3-yl)-1-methoxypropane-2-sulfonamide or (1R,2S)-1-(5-chloropyrimidin-2-yl)-N-(4-(2,6-dimethoxyphenyl)-5-((1s,3R)-3-methoxycyclobutyl)-4H-1,2,4-triazol-3-yl)-1-methoxypropane-2-sulfonamide] here?
Answer: 11 nM

Question: How did the EC50 turn out when `COc1cccc(OC)c1-n1c(NS(=O)(=O)[C@@H](C)[C@H](OC)c2cnc(C)cn2)nnc1C1CCC1` [Example 138.0] was run?
Answer: 27 nM

Question: “(1S,2S)-N-(4-(2,6-dimethoxyphenyl)-5-(trans-3-methoxycyclobutyl)-4H-1,2,4-triazol-3-yl)-1-(5-methyl-2-pyrimidinyl)-1-(2-propanyloxy)-2-propanesulfonamide or (1S,2S)-N-(4-(2,6-dimethoxyphenyl)-5-(cis-3-methoxycyclobutyl)-4H-1,2,4-triazol-3-yl)-1-(5-methyl-2-pyrimidinyl)-1-(2-propanyloxy)-2-propanesulfonamide [Example 226.0]” was tested. Which EC50 did it give?
Answer: 21 nM

Question: With `CC(C)O[C@@H](c1ncc(Cl)cn1)[C@H](C)S(=O)(=O)Nc1nnc(C2CCC2)n1C1CCOCC1` [Example 211.0, (1S,2S)-1-(5-chloro-2-pyrimidinyl)-N-(5-cyclobutyl-4-(tetrahydro-2H-pyran-4-yl)-4H-1,2,4-triazol-3-yl)-1-(2-propanyloxy)-2-propanesulfonamide] as the compound, how does the EC50 read?
Answer: 420 nM

Question: `COc1cccc(OC)c1-n1c(NS(=O)(=O)[C@@H](C)[C@H](OC)c2ncc(Cl)cn2)nnc1[C@H]1C[C@H](Cl)C1` (single isomer, unassigned) [Example 153.0, (1R,2S)-1-(5-chloropyrimidin-2-yl)-N-(4-(2,6-dimethoxyphenyl)-5-((1r,3S)-3-chlorocyclobutyl)-4H-1,2,4-triazol-3-yl)-1-methoxypropane-2-sulfonamide or (1R,2S)-1-(5-chloropyrimidin-2-yl)-N-(4-(2,6-dimethoxyphenyl)-5-((1s,3R)-3-chlorocyclobutyl)-4H-1,2,4-triazol-3-yl)-1-methoxypropane-2-sulfonamide] was tested. Which EC50 did it give?
Answer: 1.5 nM

Question: `COc1cccc(OC)c1-n1c(NS(=O)(=O)[C@@H](C)[C@H](OC)c2ncc(Cl)cn2)nnc1C1CC(C)(C)C1` [Example 119.0] was tested. Which EC50 did it give?
Answer: 0.79 nM

Question: Which EC50 does the source give for `COc1ncnc(OC)c1-n1c(NS(=O)(=O)[C@@H](C)[C@H](OC)c2ncc(Cl)cn2)nnc1C1CCCC1` [Example 19.0, (1R,2S)-1-(5-chloropyrimidin-2-yl)-N-(5-cyclopentyl-4-(4,6-dimethoxypyrimidin-5-yl)-4H-1,2,4-triazol-3-yl)-1-methoxypropane-2-sulfonamide] here?
Answer: 1.1 nM

Question: How did the EC50 turn out when `COc1cccc(OC)c1-n1c(NS(=O)(=O)[C@@H](C)[C@H](OC)c2ncc(Cl)cn2)nnc1[C@H]1C[C@H](OC)C1` (single isomer, unassigned) [Example 155.0, (1R,2S)-1-(5-chloropyrimidin-2-yl)-N-(4-(2,6-dimethoxyphenyl)-5-((1r,3S)-3-methoxycyclobutyl)-4H-1,2,4-triazol-3-yl)-1-methoxypropane-2-sulfonamide or (1R,2S)-1-(5-chloropyrimidin-2-yl)-N-(4-(2,6-dimethoxyphenyl)-5-((1s,3R)-3-methoxycyclobutyl)-4H-1,2,4-triazol-3-yl)-1-methoxypropane-2-sulfonamide] was run?
Answer: 9.4 nM

Question: How did the EC50 turn out when `COc1cccc(OC)c1-n1c(NS(=O)(=O)[C@@H](C)[C@H](OC)c2ncc(Cl)cn2)nnc1[C@H]1CCC1(F)F` (single isomer, unassigned) [Example 159.0, (1R,2S)-1-(5-chloropyrimidin-2-yl)-N-(5-((R)-2,2-difluorocyclobutyl)-4-(2,6-dimethoxyphenyl)-4H-1,2,4-triazol-3-yl)-1-methoxypropane-2-sulfonamide or (1R,2S)-1-(5-chloropyrimidin-2-yl)-N-(5-((S)-2,2-difluorocyclobutyl)-4-(2,6-dimethoxyphenyl)-4H-1,2,4-triazol-3-yl)-1-methoxypropane-2-sulfonamide] was run?
Answer: 8 nM

Question: `COc1ncnc(OC)c1-n1c(NS(=O)(=O)[C@@H](C)[C@H](OC)c2ncc(Cl)cn2)nnc1C1CCC1` [Example 7.0, (1R,2S)-1-(5-chloro-2-pyrimidinyl)-N-(5-cyclobutyl-4-(4,6-dimethoxy-5-pyrimidinyl)-4H-1,2,4-triazol-3-yl)-1-methoxy-2-propanesulfonamide] was tested. Which EC50 did it give?
Answer: 66 nM

Question: `CO[C@H](c1ncc(Cl)cn1)[C@H](C)S(=O)(=O)Nc1nnc(C2CCC2)n1-c1c(F)cccc1F` [Example 94.0, (1R,2S)-1-(5-chloropyrimidin-2-yl)-N-(5-cyclobutyl-4-(2,6-difluorophenyl)-4H-1,24-triazol-3-yl)-1-methoxypropane-2-sulfonamide] was tested. Which EC50 did it give?
Answer: 0.72 nM

Question: For “(2S,3R)-3-(5-chloropyrimidin-2-yl)-N-(5-((R)-2,2-difluorocyclopropyl)-4-(2,6-dimethoxyphenyl)-4H-1,2,4-triazol-3-yl)butane-2-sulfonamide or (2S,3R)-3-(5-chloropyrimidin-2-yl)-N-(5-((S)-2,2-difluorocyclopropyl)-4-(2,6-dimethoxyphenyl)-4H-1,2,4-triazol-3-yl)butane-2-sulfonamide [Example 220.0]”, which EC50 is on record?
Answer: 39 nM

Question: `COc1ncnc(OC)c1-n1c(NS(=O)(=O)[C@@H](C)[C@H](C)c2ncc(C)cn2)nnc1C1CC1` [Example 3.0, (2S,3R)-N-(5-cyclopropyl-4-(4,6-dimethoxy-5-pyrimidinyl)-4H-1,2,4-triazol-3-yl)-3-(5-methyl-2-pyrimidinyl)-2-butanesulfonamide] was tested. Which EC50 did it give?
Answer: 56 nM

Question: How did the EC50 turn out when “(1R,2S)-1-(5-chloropyrimidin-2-yl)-N-(4-(4,6-dimethoxypyrimidin-5-yl)-5-((R)-spiro[2.2]pentan-1-yl)-4H-1,2,4-triazol-3-yl)-1-methoxypropane-2-sulfonamide or (1R,2S)-1-(5-chloropyrimidin-2-yl)-N-(4-(4,6-dimethoxypyrimidin-5-yl)-5-((S)-spiro[2.2]pentan-1-yl)-4H-1,2,4-triazol-3-yl)-1-methoxypropane-2-sulfonamide [Example 106.0]” was run?
Answer: 19 nM

Question: How did the EC50 turn out when `COc1ncnc(OC)c1-n1c(NS(=O)(=O)[C@@H](C)[C@H](C)c2ncc(Cl)cn2)nnc1C1CCC1` [Example 85.0, (2S,3R)-3-(5-chloro-2-pyrimidinyl)-N-(5-cyclobutyl-4-(4,6-dimethoxy-5-pyrimidinyl)-4H-1,2,4-triazol-3-yl)-2-butanesulfonamide] was run?
Answer: 1.7 nM

Question: For `COc1ncnc(OC)c1-n1c(NS(=O)(=O)[C@@H](C)[C@@H](OC(C)C)c2ncc(Cl)cn2)nnc1C1CCC1` [Example 89.0, (1S,2S)-1-(5-chloro-2-pyrimidinyl)-N-(5-cyclobutyl-4-(4,6-dimethoxy-5-pyrimidinyl)-4H-1,2,4-triazol-3-yl)-1-(2-propanyloxy)-2-propanesulfonamide], which EC50 is on record?
Answer: 0.74 nM

Question: For “(2S,3R)-3-(5-chloropyrimidin-2-yl)-N-(5-((R)-2,2-difluorocyclopropyl)-4-(2,6-dimethoxyphenyl)-4H-1,2,4-triazol-3-yl)butane-2-sulfonamide or (2S,3R)-3-(5-chloropyrimidin-2-yl)-N-(5-((S)-2,2-difluorocyclopropyl)-4-(2,6-dimethoxyphenyl)-4H-1,2,4-triazol-3-yl)butane-2-sulfonamide [Example 221.0]”, which EC50 is on record?
Answer: 18 nM

Question: How did the EC50 turn out when `COc1cccc(OC)c1-n1c(NS(=O)(=O)CCc2ncc(Cl)cn2)nnc1C1CCC1` [Example 210.0, 2-(5-chloro-2-pyrimidin-yl)-N-(5-cyclobutyl-4-(2,6-dimethoxyphenyl)-4H-1,2,4-triazol-3-yl)ethanesulfonamide] was run?
Answer: 15 nM

Source: patent US11020395B2, “Cycloalkyl substituted triazole compounds as agonists of the APJ receptor” (AMGEN INC., priority 2016, dated 2021)
